Assay results published in article PMC4522657, “Identification of a DYRK1A Inhibitor that Induces Degradation of the Target Kinase using Co-chaperone CDC37 fused with Luciferase nanoKAZ” (Scientific Reports, 2015).

How the values were obtained:
CRIK = target: T1, CRIK (Homo sapiens, UniProt O14578); assay: Kinase panel, CaNDY 1 µM; type: biochemical; settings: CaNDY 1 µM relative to DMSO
T1 construct: purchased Carna Biosciences

3xFLAG-DYRK1A = target: T2, 3xFLAG-DYRK1A (Homo sapiens, UniProt Q13627); assay: Western blot of 3xFLAG-DYRK1A level in transfected 293T cells; type: cell-based; settings: CaNDY 2 μM, 8 h, compared with DMSO
T2 construct: F2A peptide linking to EGFP (2A skipping releases EGFP; a 2A remnant may stay on DYRK1A) (C); expressed in transfected cells; host or cells: 293T cells, transient
Method: To investigate whether DYRK1A is a client kinase of the CDC37/HSP90 system, we used a HSP90 inhibitor, ganetespib. 293T cells were transiently transfected with an expression vector of 3xFLAG-tagged DYRK1A (3xFLAG-DYRK1A). At 24 h after transfection, the cells were treated with ganetespib for the indicated time (0–8 h). Total cell lysates were collected and subjected to SDS-PAGE followed by Western blot analysis.
Figure 1 Ganetespib, a HSP90 inhibitor, decreases the DYRK1A protein level. 293T cells were transiently transfected with an expression vector for 3xFLAG-DYRK1A. At 24 h after transfection, the cells were treated with ganetespib (100 nM) and collected 0 and 8 h after treatment. Total cell lysates were subjected to SDS-PAGE followed by Western blot analysis using antibodies against FLAG and GAPDH. In the control group (DMSO), expression of 3xFLAG-DYRK1A increased at 8 h compared to 0 h, and ganetespib suppressed this increase of 3xFLAG-DYRK1A.
Western blot analysis was performed using the antibodies described above. In brief, total cell lysates were separated by SDS-PAGE (5–20% gels; ATTO, Tokyo, Japan) under reducing conditions and then transferred to a PVDF membrane (PALL, SP, Brazil). Antibody reactions were performed with Can Get Signal® Immunoreaction Enhancer Solution (Toyobo). Peroxidase activities on the membrane were visualized with ECL Western Blotting Detection Reagents (GE Healthcare) or ImmunoStar® LD (Wako Pure Chemical Industries, Osaka, Japan), and a ChemiDoc^TM MP Imaging System (Bio-Rad, Hercules, CA, USA).

FER = target: T3, FER (Homo sapiens, UniProt P16591); assay: Kinase panel, CaNDY 1 µM; type: biochemical; settings: CaNDY 1 µM relative to DMSO
T3 construct: purchased Carna Biosciences

PHKG2 = target: T4, PHKG2 (Homo sapiens, UniProt P15735); assay: Kinase panel, CaNDY 1 µM; type: biochemical; settings: CaNDY 1 µM relative to DMSO
T4 construct: purchased Carna Biosciences

p70S6K = target: T5, p70S6K (Homo sapiens, UniProt P23443); assay: Kinase panel, CaNDY 1 µM; type: biochemical; settings: CaNDY 1 µM relative to DMSO
T5 construct: purchased Carna Biosciences

NPM1-ALK = target: T6, NPM1-ALK (Homo sapiens, UniProt P06748+Q9UM73); assay: Kinase panel, CaNDY 1 µM; type: biochemical; settings: CaNDY 1 µM relative to DMSO
T6 construct: purchased Carna Biosciences
How it was run: (§1)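 Percent inhibition was derived from the phosphorylated fraction, P/(P + S), compared with reactions lacking compound. Phosphorylation was measured by electrophoretic mobility shift after 1 h at room temperature. Kinases were recombinant full-length human GST fusions from a baculovirus system; DMSO was 1% final.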

PAK2 = target: T7, PAK2 (Homo sapiens, UniProt Q13177); assay: Kinase panel, CaNDY 1 µM; type: biochemical; settings: CaNDY 1 µM relative to DMSO
T7 construct: purchased Carna Biosciences
How it was run: as §1

BRSK1 = target: T8, BRSK1 (Homo sapiens, UniProt Q8TDC3); assay: Kinase panel, CaNDY 1 µM; type: biochemical; settings: CaNDY 1 µM relative to DMSO
T8 construct: purchased Carna Biosciences
How it was run: as §1

BLK = target: T9, BLK (Homo sapiens, UniProt P51451); assay: Kinase panel, CaNDY 1 µM; type: biochemical; settings: CaNDY 1 µM relative to DMSO
T9 construct: purchased Carna Biosciences
How it was run: as §1

FGFR4(V550E) = target: T10, FGFR4(V550E) (Homo sapiens, UniProt P22455, V550E); assay: Kinase panel, CaNDY 1 µM; type: biochemical; settings: CaNDY 1 µM relative to DMSO
T10 construct: purchased Carna Biosciences
How it was run: as §1

p38α = target: T11, p38α (Homo sapiens, UniProt Q16539); assay: Kinase panel, CaNDY 1 µM; type: biochemical; settings: CaNDY 1 µM relative to DMSO
T11 construct: purchased Carna Biosciences
How it was run: as §1

CK1α = target: T12, CK1α (Homo sapiens, UniProt P48729); assay: Kinase panel, CaNDY 1 µM; type: biochemical; settings: CaNDY 1 µM relative to DMSO
T12 construct: purchased Carna Biosciences
How it was run: as §1

MOS_Cascade = target: T13, MOS_Cascade (Homo sapiens, UniProt P00540); assay: Kinase panel, CaNDY 1 µM; type: biochemical; settings: CaNDY 1 µM relative to DMSO
T13 construct: purchased Carna Biosciences
How it was run: as §1

WNK1 = target: T14, WNK1 (Homo sapiens, UniProt Q9H4A3); assay: Kinase panel, CaNDY 1 µM; type: biochemical; settings: CaNDY 1 µM relative to DMSO
T14 construct: purchased Carna Biosciences
How it was run: as §1

PDK1 = target: T15, PDK1 (Homo sapiens, UniProt O15530); assay: Kinase panel, CaNDY 1 µM; type: biochemical; settings: CaNDY 1 µM relative to DMSO
T15 construct: purchased Carna Biosciences
How it was run: as §1

JAK2 = target: T16, JAK2 (Homo sapiens, UniProt O60674); assay: Kinase panel, CaNDY 1 µM; type: biochemical; settings: CaNDY 1 µM relative to DMSO
T16 construct: purchased Carna Biosciences
How it was run: as §1

EPHA3 = target: T17, EPHA3 (Homo sapiens, UniProt P29320); assay: Kinase panel, CaNDY 1 µM; type: biochemical; settings: CaNDY 1 µM relative to DMSO
T17 construct: purchased Carna Biosciences
How it was run: as §1

HIPK4 = target: T18, HIPK4 (Homo sapiens, UniProt Q8NE63); assay: Kinase panel, CaNDY 1 µM; type: biochemical; settings: CaNDY 1 µM relative to DMSO
T18 construct: purchased Carna Biosciences
How it was run: as §1

MINK = target: T19, MINK (Homo sapiens, UniProt Q8N4C8); assay: Kinase panel, CaNDY 1 µM; type: biochemical; settings: CaNDY 1 µM relative to DMSO
T19 construct: purchased Carna Biosciences
How it was run: as §1

EGFR = target: T20, EGFR (Homo sapiens, UniProt P00533); assay: Kinase panel, CaNDY 1 µM; type: biochemical; settings: CaNDY 1 µM relative to DMSO
T20 construct: purchased Carna Biosciences
How it was run: as §1

MARK3 = target: T21, MARK3 (Homo sapiens, UniProt P27448); assay: Kinase panel, CaNDY 1 µM; type: biochemical; settings: CaNDY 1 µM relative to DMSO
T21 construct: purchased Carna Biosciences
How it was run: as §1

NEK6 = target: T22, NEK6 (Homo sapiens, UniProt Q9HC98); assay: Kinase panel, CaNDY 1 µM; type: biochemical; settings: CaNDY 1 µM relative to DMSO
T22 construct: purchased Carna Biosciences
How it was run: as §1

NuaK1 = target: T23, NuaK1 (Homo sapiens, UniProt O60285); assay: Kinase panel, CaNDY 1 µM; type: biochemical; settings: CaNDY 1 µM relative to DMSO
T23 construct: purchased Carna Biosciences
How it was run: as §1

WNK3 = target: T24, WNK3 (Homo sapiens, UniProt Q9BYP7); assay: Kinase panel, CaNDY 1 µM; type: biochemical; settings: CaNDY 1 µM relative to DMSO
T24 construct: purchased Carna Biosciences
How it was run: as §1

SRPK2 = target: T25, SRPK2 (Homo sapiens, UniProt P78362); assay: Kinase panel, CaNDY 1 µM; type: biochemical; settings: CaNDY 1 µM relative to DMSO
T25 construct: purchased Carna Biosciences
How it was run: as §1

T8 sequence (Q8TDC3 whole entry): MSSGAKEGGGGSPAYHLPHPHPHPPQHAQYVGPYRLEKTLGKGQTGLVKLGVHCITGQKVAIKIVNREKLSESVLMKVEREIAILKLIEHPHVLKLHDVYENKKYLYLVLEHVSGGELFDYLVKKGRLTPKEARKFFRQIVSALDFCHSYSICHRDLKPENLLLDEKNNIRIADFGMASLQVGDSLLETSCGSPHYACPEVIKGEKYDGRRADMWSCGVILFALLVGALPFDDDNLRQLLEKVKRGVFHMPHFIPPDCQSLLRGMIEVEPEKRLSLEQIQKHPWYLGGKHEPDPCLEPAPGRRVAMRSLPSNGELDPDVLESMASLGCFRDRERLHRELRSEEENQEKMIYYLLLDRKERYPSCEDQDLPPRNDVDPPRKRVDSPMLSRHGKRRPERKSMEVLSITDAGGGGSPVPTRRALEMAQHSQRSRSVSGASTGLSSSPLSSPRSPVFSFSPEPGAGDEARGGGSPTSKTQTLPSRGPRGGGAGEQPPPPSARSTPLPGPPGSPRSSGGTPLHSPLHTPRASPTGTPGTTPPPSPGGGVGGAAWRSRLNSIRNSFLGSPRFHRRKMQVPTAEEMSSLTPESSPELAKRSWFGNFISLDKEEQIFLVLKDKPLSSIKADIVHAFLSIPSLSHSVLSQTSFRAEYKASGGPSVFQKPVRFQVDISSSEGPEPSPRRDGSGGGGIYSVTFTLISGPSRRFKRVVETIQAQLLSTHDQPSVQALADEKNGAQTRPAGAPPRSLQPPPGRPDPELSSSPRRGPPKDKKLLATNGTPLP
T9 sequence (P51451 whole entry): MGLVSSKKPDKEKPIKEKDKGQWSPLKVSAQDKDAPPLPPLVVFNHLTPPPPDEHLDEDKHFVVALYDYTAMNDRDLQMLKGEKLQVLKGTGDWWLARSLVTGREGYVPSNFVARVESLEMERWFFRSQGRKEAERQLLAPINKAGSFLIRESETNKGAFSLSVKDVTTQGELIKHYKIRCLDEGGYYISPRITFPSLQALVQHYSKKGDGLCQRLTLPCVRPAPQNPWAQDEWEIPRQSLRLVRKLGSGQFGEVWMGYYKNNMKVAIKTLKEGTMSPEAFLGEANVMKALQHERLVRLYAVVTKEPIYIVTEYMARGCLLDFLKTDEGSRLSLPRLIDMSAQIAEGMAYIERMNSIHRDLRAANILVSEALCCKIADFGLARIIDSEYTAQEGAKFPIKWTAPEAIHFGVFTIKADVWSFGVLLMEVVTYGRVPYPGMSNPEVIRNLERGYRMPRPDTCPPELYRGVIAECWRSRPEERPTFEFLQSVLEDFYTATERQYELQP
T24 sequence (Q9BYP7 whole entry): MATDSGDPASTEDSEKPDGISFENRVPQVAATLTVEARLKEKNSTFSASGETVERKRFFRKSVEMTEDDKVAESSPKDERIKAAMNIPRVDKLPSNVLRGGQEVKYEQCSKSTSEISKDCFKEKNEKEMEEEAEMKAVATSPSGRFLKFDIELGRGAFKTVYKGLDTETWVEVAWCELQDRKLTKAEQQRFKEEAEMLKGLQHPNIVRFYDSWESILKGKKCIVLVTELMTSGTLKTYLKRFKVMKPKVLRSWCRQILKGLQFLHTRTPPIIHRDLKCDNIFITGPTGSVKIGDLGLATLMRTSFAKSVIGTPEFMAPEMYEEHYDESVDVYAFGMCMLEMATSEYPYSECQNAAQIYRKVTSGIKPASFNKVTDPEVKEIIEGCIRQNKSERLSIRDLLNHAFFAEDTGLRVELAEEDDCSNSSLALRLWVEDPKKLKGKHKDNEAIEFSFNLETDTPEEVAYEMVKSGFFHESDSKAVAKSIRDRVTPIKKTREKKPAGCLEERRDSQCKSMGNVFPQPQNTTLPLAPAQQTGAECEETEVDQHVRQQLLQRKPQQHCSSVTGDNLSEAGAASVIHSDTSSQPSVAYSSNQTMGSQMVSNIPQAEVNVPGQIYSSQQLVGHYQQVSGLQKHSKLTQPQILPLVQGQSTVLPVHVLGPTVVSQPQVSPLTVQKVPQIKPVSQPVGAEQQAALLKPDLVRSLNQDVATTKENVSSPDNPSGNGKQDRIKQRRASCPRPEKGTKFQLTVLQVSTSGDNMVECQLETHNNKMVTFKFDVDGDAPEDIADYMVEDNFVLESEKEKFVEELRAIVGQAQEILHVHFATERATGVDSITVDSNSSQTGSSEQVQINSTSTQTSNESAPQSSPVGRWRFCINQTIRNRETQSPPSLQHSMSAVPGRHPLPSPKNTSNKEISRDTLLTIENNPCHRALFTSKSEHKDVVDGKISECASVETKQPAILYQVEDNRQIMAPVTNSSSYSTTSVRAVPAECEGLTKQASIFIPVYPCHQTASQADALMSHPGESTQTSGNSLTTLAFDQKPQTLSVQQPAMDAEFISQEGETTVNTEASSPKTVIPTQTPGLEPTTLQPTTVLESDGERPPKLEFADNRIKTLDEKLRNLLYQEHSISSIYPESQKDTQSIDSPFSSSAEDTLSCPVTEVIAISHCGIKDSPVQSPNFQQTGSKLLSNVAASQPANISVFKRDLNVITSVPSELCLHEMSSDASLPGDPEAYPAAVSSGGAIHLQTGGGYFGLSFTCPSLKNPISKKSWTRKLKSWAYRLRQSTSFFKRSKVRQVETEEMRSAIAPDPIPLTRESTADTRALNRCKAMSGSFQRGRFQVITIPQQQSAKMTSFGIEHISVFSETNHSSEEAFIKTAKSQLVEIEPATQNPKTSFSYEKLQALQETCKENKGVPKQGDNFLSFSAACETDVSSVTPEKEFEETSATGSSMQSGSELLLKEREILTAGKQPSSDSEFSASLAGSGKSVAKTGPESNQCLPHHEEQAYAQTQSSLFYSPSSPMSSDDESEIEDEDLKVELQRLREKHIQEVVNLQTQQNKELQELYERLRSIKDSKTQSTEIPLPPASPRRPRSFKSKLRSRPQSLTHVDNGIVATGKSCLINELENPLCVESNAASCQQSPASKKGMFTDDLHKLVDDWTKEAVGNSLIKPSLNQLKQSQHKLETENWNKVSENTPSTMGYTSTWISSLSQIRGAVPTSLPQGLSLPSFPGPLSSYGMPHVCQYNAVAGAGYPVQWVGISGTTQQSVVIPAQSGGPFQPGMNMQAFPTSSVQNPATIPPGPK
T1 sequence (O14578 whole entry): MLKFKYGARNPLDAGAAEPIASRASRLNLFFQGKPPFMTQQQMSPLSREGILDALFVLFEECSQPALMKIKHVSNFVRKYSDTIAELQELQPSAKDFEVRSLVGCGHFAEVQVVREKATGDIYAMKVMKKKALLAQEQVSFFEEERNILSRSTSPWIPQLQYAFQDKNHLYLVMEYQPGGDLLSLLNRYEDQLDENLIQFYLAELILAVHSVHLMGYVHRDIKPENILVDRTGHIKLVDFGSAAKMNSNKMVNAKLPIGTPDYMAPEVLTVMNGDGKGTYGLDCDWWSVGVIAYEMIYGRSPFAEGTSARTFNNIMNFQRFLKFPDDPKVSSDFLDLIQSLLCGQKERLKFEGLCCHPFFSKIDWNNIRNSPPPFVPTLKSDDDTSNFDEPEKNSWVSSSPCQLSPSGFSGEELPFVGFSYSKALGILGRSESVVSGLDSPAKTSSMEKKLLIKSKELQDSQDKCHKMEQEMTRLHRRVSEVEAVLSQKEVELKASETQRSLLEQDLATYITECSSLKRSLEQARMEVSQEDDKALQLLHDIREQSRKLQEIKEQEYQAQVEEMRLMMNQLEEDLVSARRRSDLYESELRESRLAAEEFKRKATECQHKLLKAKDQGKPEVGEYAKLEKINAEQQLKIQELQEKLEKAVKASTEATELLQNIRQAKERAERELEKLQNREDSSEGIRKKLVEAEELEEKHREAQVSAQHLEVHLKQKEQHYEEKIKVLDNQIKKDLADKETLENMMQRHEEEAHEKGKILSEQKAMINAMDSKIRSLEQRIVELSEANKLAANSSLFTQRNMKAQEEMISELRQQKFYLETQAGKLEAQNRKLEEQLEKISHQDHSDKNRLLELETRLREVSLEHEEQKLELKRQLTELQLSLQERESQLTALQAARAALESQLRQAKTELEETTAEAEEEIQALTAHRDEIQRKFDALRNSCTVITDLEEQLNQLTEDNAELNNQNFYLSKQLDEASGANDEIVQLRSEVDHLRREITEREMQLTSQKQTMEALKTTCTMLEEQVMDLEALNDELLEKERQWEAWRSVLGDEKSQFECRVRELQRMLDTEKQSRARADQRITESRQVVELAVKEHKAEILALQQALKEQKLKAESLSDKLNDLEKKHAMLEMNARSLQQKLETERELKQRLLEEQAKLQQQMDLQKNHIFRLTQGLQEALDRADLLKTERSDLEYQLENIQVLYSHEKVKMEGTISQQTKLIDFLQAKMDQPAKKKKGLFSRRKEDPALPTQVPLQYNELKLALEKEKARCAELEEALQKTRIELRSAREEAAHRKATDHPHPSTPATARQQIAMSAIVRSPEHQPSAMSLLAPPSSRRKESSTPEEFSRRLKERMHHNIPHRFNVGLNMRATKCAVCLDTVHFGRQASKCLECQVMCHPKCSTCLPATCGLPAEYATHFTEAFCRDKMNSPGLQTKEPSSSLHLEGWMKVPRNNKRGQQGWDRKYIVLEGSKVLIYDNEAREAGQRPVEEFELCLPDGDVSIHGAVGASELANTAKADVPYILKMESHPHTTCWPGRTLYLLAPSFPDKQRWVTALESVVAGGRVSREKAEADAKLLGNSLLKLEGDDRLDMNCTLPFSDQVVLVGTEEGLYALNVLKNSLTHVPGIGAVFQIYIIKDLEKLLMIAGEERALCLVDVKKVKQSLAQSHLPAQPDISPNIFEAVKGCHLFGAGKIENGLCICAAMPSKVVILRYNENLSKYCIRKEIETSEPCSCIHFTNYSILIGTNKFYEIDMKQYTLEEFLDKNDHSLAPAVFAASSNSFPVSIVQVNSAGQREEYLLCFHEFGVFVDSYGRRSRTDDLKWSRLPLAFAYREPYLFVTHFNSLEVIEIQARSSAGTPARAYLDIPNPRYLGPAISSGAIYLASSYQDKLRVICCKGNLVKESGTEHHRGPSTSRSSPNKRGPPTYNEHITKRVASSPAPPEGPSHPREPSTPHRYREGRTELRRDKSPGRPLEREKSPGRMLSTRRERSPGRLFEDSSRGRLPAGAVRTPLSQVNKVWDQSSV

With `[H]/N=C1/NC(=O)C(=Cc2ccc3c(c2)CCO3)S1` [CaNDY, (Z)-5-[(2,3-dihydrobenzofuran-5-yl)methylene]-2-iminothiazolidin-4-one] the “%Activity” value (CRIK) was 87.0%, the 3xFLAG-DYRK1A level (3xFLAG-DYRK1A) was “decreased the 3xFLAG-DYRK1A level” and the remaining activity at 1 µM (FER) was 98.6%. It also gave a remaining activity at 1 µM (PHKG2) of 88%, a remaining activity at 1 µM (p70S6K) of 89.7% and a remaining activity at 1 µM (NPM1-ALK) of 97.8%. The remaining activity at 1 µM (PAK2) was 101%, the remaining activity at 1 µM (BRSK1) was 97.3% and the remaining activity at 1 µM (BLK) was 101%. For the same compound, the remaining activity at 1 µM (FGFR4(V550E)) was 102%, the “%Activity” value (p38α) was 95.9% and the remaining activity at 1 µM (CK1α) was 73.6%. The remaining activity at 1 µM (MOS_Cascade) was 92.4%, the “%Activity” value (WNK1) was 98.8% and the remaining activity at 1 µM (PDK1) was 107%. For the same compound, the “%Activity” value (JAK2) was 100.3%, the remaining activity at 1 µM (EPHA3) was 96.3% and the remaining activity at 1 µM (HIPK4) was 78.2%. The remaining activity at 1 µM (MINK) was 83.7%, the “%Activity” value (EGFR) was 99.9% and the remaining activity at 1 µM (MARK3) was 95%. For the same compound, the remaining activity at 1 µM (NEK6) was 96.1%, the “%Activity” value (NuaK1) was 98.1% and the remaining activity at 1 µM (WNK3) was 102%. For the same compound, the remaining activity at 1 µM (SRPK2) was 96.6%.
